According to US9656962B2, “Ring-contracted morphinans and the use thereof” (Purdue Pharma L.P., priority 2013, dated 2017):

Target: μ-opioid receptor (Homo sapiens (Human), UniProt P35372)
Assay: μ-opioid receptor [35S]GTPγS functional assay, HEK-293 cells (Table 6)
Type: biochemical
Details: for Emax: relative to DAMGO; for EC50: μ GTP
Description: μ-Opioid Receptor Functional Assay Procedures: [^35S]GTPγS functional assays were conducted using freshly thawed μ-receptor membranes prepared in-house from a cell line expressing recombinant μ opioid receptor in a HEK-293, CHO or U-2 OS cell background, or purchased from a commercial source (Perkin Elmer, Shelton, Conn.; or DiscovRx, Fremont, Calif.). Assay reactions were prepared by sequentially adding the following reagents to binding buffer (100 mM NaCl, 10 mM MgCl2, 20 mM HEPES, pH 7.4) on ice (final concentrations indicated): membrane protein (0.026 mg/mL), saponin ([…]), GDP ([…]) and [^35S]GTPγS (0.20 nM; Perkin Elmer, Shelton, Conn.). The prepared membrane solution (190 μl/well) was transferred to 96-shallow well polypropylene plates containing 10 μl of 20× concentrated stock solutions of the agonist [D-Ala^2, N-methyl-Phe^4 Gly-ol^5]-enkephalin (DAMGO) prepared in dimethyl sulfoxide (DMSO). Plates were incubated for 30 min at about 25° C. with shaking Reactions were terminated by rapid filtration onto 96-well Unifilter GF/B filter plates (Perkin Elmer, Shelton, Conn.) using a 96-well tissue harvester (Perkin Elmer, Shelton, Conn.) followed by three filtration washes with 200 μl of ice-cold wash buffer (10 mM NaH2PO4, 10 mM Na2HPO4, pH 7.4). Filter plates were subsequently dried at 50° C. for 2-3 hours. BetaScint scintillation cocktail (Perkin Elmer, Shelton, Conn.) was added (50 μl/well) and plates were counted using a Packard Top-Count for 1 min/well. Data were analyzed using the sigmoidal dose-response curve fitting functions in GraphPad PRISM v. 3.0, or an in-house function for non-linear, sigmoidal dose-response curve-fitting. [^35S]GTPγS functional assays can also be conducted using freshly thawed μ-receptor membranes prepared from a cell line expressing recombinant μ opioid receptor in a CHO-K1 cell background.
μ GTP Emax (%) is the maximal effect elicited by a compound relative to the effect elicited by DAMGO, a standard μ agonist. Generally, the μ GTP Emax (%) value measures the efficacy of a compound to treat or prevent pain or other Conditions.
The following TABLE 6 provides results on the activity response of certain Compounds of the Invention at the μ- and κ-opioid receptors determined as described above using HEK-293 cells.

Row | SMILES | Emax | EC50 | EC50 (bound given in μM)
1 | C[C@@H]1CN(CCNC(=O)[C@H]2C[C@]34CCN(CC5CC5)[C@H](Cc5ccc(O)cc53)[C@]4(O)C2)C[C@H](C)O1 [Compound 135, (2S,3aS,4R,9bS)-12-(cyclopropylmethyl)-N-(2-((2S,6R)-2,6-dimethylmorpholino)-ethyl)-3a,8-dihydroxy-1,2,3,3a,4,5-hexahydro-4,9b-(epiminoethano)cyclo-penta[a]naphthalene-2-carboxamide] | 19.7 ± 0.89% | 0.0103 ± 0.00103 µM | –
2 | CN1CC[C@]23C[C@H](C(=O)NCc4ccc(Cl)cc4Cl)C[C@@]2(O)[C@H]1Cc1ccc(O)cc13 [Compound 107, (2S,3aS,4R,9bS)-N-(2,4-dichlorobenzyl)-3a,8-dihydroxy-12-methyl-1,2,3,3a,4,5-hexahydro-4,9b-(epiminoethano)cyclo-penta[a]naphthalene-2-carboxamide] | 94.7 ± 0.33% | 0.0108 ± 0.00083 µM | –
3 | O=C(NCCc1ccc(Cl)cc1)[C@@H]1C[C@]23CCN(CC4CC4)[C@H](Cc4ccc(O)cc42)[C@]3(O)C1 [Compound 129, (2R,3aS,4R,9bS)-N-(4-chlorophenethyl)-12-(cyclopropylmethyl)-3a,8-dihydroxy-1,2,3,3a,4,5-hexahydro-4,9b-(epimino-ethano)cyclopenta[a]naphthalene-2-carboxamide] | 1% | – | > 20 µM
4 | O=C([C@H]1C[C@]23CCN(CC4CC4)[C@H](Cc4ccc(O)cc42)[C@]3(O)C1)N1CCN(c2ccccc2)CC1 [Compound 96, ((2S,3aS,4R,9bS)-12-(cyclopropylmethyl)-3a,8-dihydroxy-1,2,3,3a,4,5-hexahydro-4,9b-(epiminoethano)cyclopenta-[a]naphthalen-2-yl)(4-phenylpiperazin-1-yl)methanone] | 14.2 ± 2.5% | 0.0144 ± 0.00255 µM | –
5 | CN1CC[C@]23C[C@H](C(=O)NCCO)C[C@@]2(O)[C@H]1Cc1ccc(O)cc13 [Compound 115, (2S,3aS,4R,9bS)-3a,8-dihydroxy-N-(2-hydroxyethyl)-12-methyl-1,2,3,3a,4,5-hexahydro-4,9b-(epiminoethano)cyclo-penta[a]naphthalene-2-carboxamide] | 35 ± 1.14% | 0.917 ± 0.131 µM | –
6 | O=C(NCc1cc(F)cc(F)c1)[C@H]1C[C@]23CCN(CC4CC4)[C@H](Cc4ccc(O)cc42)[C@]3(O)C1 [Compound 143, (2S,3aS,4R,9bS)-12-(cyclopropylmethyl)-N-(3,5-difluorobenzyl)-3a,8-dihydroxy-1,2,3,3a,4,5-hexahydro-4,9b-(epimino-ethano)cyclopenta[a]naphthalene-2-carboxamide] | 39.9 ± 1.01% | 0.00209 ± 0.00045 µM | –
7 | O=C(NCc1cc(O)cc(O)c1)[C@@H]1C[C@]23CCN(CC4CC4)[C@H](Cc4ccc(O)cc42)[C@]3(O)C1 [Compound 139, (2R,3aS,4R,9bS)-12-(cyclopropylmethyl)-N-(3,5-dihydroxybenzyl)-3a,8-dihydroxy-1,2,3,3a,4,5-hexahydro-4,9b-(epimino-ethano)cyclopenta[a]naphthalene-2-carboxamide] | -1% | – | > 20 µM
8 | CN(C)CCN(C)C(=O)[C@@H]1C[C@]23CCN(C)[C@H](Cc4ccc(O)cc42)[C@]3(O)C1 [Compound 113, (2R,3aS,4R,9bS)-N-(2-(dimethylamino)-ethyl)-3a,8-dihydroxy-N,12-dimethyl-1,2,3,3a,4,5-hexahydro-4,9b-(epimino-ethano)cyclopenta[a]naphthalene-2-carboxamide] | -1% | – | > 20 µM
9 | Cc1ccc(CNC(=O)[C@@H]2C[C@]34CCN(CC5CC5)[C@H](Cc5ccc(O)cc53)[C@]4(O)C2)cc1Cl [Compound 126, (2R,3aS,4R,9bS)-N-(3-chloro-4-methylbenzyl)-12-(cyclopropylmethyl)-3a,8-dihydroxy-1,2,3,3a,4,5-hexahydro-4,9b-(epiminoethano)cyclopenta-[a]naphthalene-2-carboxamide] | -1% | – | > 20 µM
10 | Cc1ccc(CNC(=O)[C@@H]2C[C@]34CCN(C)[C@H](Cc5ccc(O)cc53)[C@]4(O)C2)cc1 [Compound 104, (2R,3aS,4R,9bS)-3a,8-dihydroxy-12-methyl-N-(4-methylbenzyl)-1,2,3,3a,4,5-hexahydro-4,9b-(epiminoethano)cyclo-penta[a]naphthalene-2-carboxamide] | 52 ± 3.51% | 2.93 ± 1.08 µM | –
11 | CN1CC[C@]23C[C@@H](NC(=O)c4ccccc4)C[C@@]2(O)[C@H]1Cc1ccc(O)cc13 [Compound 110, N-((2R,3aS,4R,9bR)-3a,8-dihydroxy-12-methyl-1,2,3,3a,4,5-hexahydro-4,9b-(epiminoethano)cyclopenta[a]naphthalen-2-yl)benzamide] | 35.2 ± 0.76% | 8.41 ± 0.956 µM | –
12 | CN1CC[C@]23C[C@@H](C(=O)NCc4ccc(O)cc4O)C[C@@]2(O)[C@H]1Cc1ccc(O)cc13 [Compound 98, (2R,3aS,4R,9bS)-N-(2,4-dihydroxy-benzyl)-3a,8-dihydroxy-12-methyl-1,2,3,3a,4,5-hexahydro-4,9b-(epiminoethano)cyclopenta[a]naphthalene-2-carboxamide] | 26.7 ± 0.67% | 1.29 ± 0.223 µM | –
13 | CN1CC[C@]23C[C@@H](C(=O)N4CCOCC4)C[C@@]2(O)[C@H]1Cc1ccc(O)cc13 [Compound 111, ((2R,3aS,4R,9bS)-3a,8-dihydroxy-12-methyl-1,2,3,3a,4,5-hexahydro-4,9b-(epiminoethano)cyclopenta[a]naphthalen-2-yl)(morpholino)methanone] | 35.1 ± 1.06% | 3.17 ± 0.493 µM | –
14 | O=C(NCc1ccc(F)cc1F)[C@H]1C[C@]23CCN(CC4CC4)[C@H](Cc4ccc(O)cc42)[C@]3(O)C1 [Compound 146, (2S,3aS,4R,9bS)-12-(cyclopropylmethyl)-N-(2,4-difluorobenzyl)-3a,8-dihydroxy-1,2,3,3a,4,5-hexahydro-4,9b-(epimino-ethano)cyclopenta[a]naphthalene-2-carboxamide] | 28.3 ± 1.13% | 0.00222 ± 0.00041 µM | –
15 | O=C(NCCc1ccc(Cl)c(Cl)c1)[C@@H]1C[C@]23CCN(CC4CC4)[C@H](Cc4ccc(O)cc42)[C@]3(O)C1 [Compound 131, (2R,3aS,4R,9bS)-12-(cyclopropylmethyl)-N-(3,4-dichlorophenethyl)-3a,8-dihydroxy-1,2,3,3a,4,5-hexahydro-4,9b-(epiminoethano)cyclopenta[a]naphthalene-2-carboxamide] | 1% | – | > 20 µM
16 | N#Cc1ccc2c(c1)[C@]13CCN(CC4CC4)[C@H](C2)[C@]1(O)C[C@H](C(=O)NCCN1CCOCC1)C3 [Compound 122, (2R,3aS,4R,9bS)-8-cyano-12-(cyclopropylmethyl)-3a-hydroxy-N-(2-morpholinoethyl)-1,2,3,3a,4,5-hexahydro-4,9b-(epiminoethano)cyclopenta-[a]naphthalene-2-carboxamide] | 0.33 ± 0.67% | – | > 20 µM
17 | Cc1ccc(CNC(=O)[C@H]2C[C@]34CCN(CC5CC5)[C@H](Cc5ccc(C#N)cc53)[C@]4(O)C2)cc1 [Compound 121, (2S,3aS,4R,9bS)-8-cyano-12-(cyclopropylmethyl)-3a-hydroxy-N-(4-methylbenzyl)-1,2,3,3a,4,5-hexahydro-4,9b-(epiminoethano)cyclopenta-[a]naphthalene-2-carboxamide] | 29.3 ± 1.78% | 1.09 ± 0.0702 µM | –
